Results: Sander's compilation of Henry's law constants (doi:10.1021/es00081a021)

Experiment: Henry solubility constant Hcp at 298.15 K (mol/(m3 Pa))
Settings: reference: Brunner et al. (1990)

SMILES | Henry solubility constant Hcp
Clc1cc(-c2c(Cl)cc(Cl)c(Cl)c2Cl)c(Cl)c(Cl)c1Cl [2,2',3,3',4,4',5,6'-octachlorobiphenyl] | 0.99
Clc1ccc(Cl)c(-c2ccccc2)c1Cl [2,3,6-trichlorobiphenyl] | 0.045
Clc1cc(Cl)c(-c2c(Cl)cccc2Cl)cc1Cl [2,2',4,5,6'-pentachlorobiphenyl] | 0.11
Clc1cc(-c2cc(Cl)c(Cl)c(Cl)c2Cl)c(Cl)c(Cl)c1Cl [2,2',3,3',4,4',5,5'-octachlorobiphenyl] | 0.99
Clc1ccc(Cl)c(-c2ccccc2Cl)c1 [2,2',5-trichlorobiphenyl] | 0.039
Clc1ccc(-c2ccc(Cl)c(Cl)c2Cl)c(Cl)c1 [2,2',3,4,4'-pentachlorobiphenyl] | 0.15
Clc1cc(-c2c(Cl)ccc(Cl)c2Cl)c(Cl)c(Cl)c1Cl [2,2',3,3',4,5,6'-heptachlorobiphenyl] | 0.7
Clc1cc(Cl)c(-c2cccc(Cl)c2Cl)cc1Cl [2,2',3,4',5'-pentachlorobiphenyl] | 0.13
Clc1cccc(-c2cc(Cl)c(Cl)c(Cl)c2Cl)c1Cl [2,2',3,3',4,5-hexachlorobiphenyl] | 0.34
Clc1ccc(-c2cc(Cl)ccc2Cl)cc1 [2,4',5-trichlorobiphenyl] | 0.052
Clc1cccc(-c2ccccc2Cl)c1 [2,3'-dichlorobiphenyl] | 0.039
Clc1cccc(-c2cccc(Cl)c2Cl)c1Cl [2,2',3,3'-tetrachlorobiphenyl] | 0.099
Clc1cccc(-c2cc(Cl)c(Cl)cc2Cl)c1 [2,3',4,5-tetrachlorobiphenyl] | 0.099
Clc1ccc(-c2c(Cl)c(Cl)cc(Cl)c2Cl)c(Cl)c1 [2,2',3,4',5,6-hexachlorobiphenyl] | 0.19
Clc1cc(Cl)c(-c2c(Cl)c(Cl)cc(Cl)c2Cl)c(Cl)c1Cl [2,2',3,3',4,5',6,6'-octachlorobiphenyl] | 0.58
Clc1ccc(Cl)c(-c2cc(Cl)c(Cl)c(Cl)c2Cl)c1 [2,2',3,4,5,5'-hexachlorobiphenyl] | 0.43
Clc1cccc(-c2c(Cl)c(Cl)c(Cl)c(Cl)c2Cl)c1 [2,3,3',4,5,6-hexachlorobiphenyl] | 0.49
Clc1cc(Cl)c(Cl)c(-c2c(Cl)c(Cl)cc(Cl)c2Cl)c1Cl [2,2',3,3',5,5',6,6'-octachlorobiphenyl] | 0.55
Clc1cc(Cl)cc(-c2c(Cl)c(Cl)cc(Cl)c2Cl)c1 [2,3,3',5,5',6-hexachlorobiphenyl] | 0.34

SMILES | Henry solubility constant Hcp
Clc1cc(Cl)c(-c2ccc(Cl)c(Cl)c2Cl)cc1Cl [2,2',3,4,4',5'-hexachlorobiphenyl] | 0.47
Clc1cc(Cl)c(Cl)c(-c2c(Cl)ccc(Cl)c2Cl)c1 [2,2',3,3',5,6'-hexachlorobiphenyl] | 0.18
Clc1cccc(-c2c(Cl)c(Cl)c(Cl)c(Cl)c2Cl)c1Cl [2,2',3,3',4,5,6-heptachlorobiphenyl] | 0.7
Clc1cc(Cl)c(Cl)c(-c2cc(Cl)c(Cl)cc2Cl)c1 [2,2',3,4',5,5'-hexachlorobiphenyl] | 0.39
Clc1cc(Cl)c(-c2ccccc2)c(Cl)c1Cl [2,3,4,6-tetrachlorobiphenyl] | 0.047
Clc1cc(-c2c(Cl)c(Cl)cc(Cl)c2Cl)c(Cl)c(Cl)c1Cl [2,2',3,3',4,5,5',6'-octachlorobiphenyl] | 0.99
Clc1cc(Cl)cc(-c2cc(Cl)c(Cl)c(Cl)c2Cl)c1 [2,3,3',4,5,5'-hexachlorobiphenyl] | 0.49
Clc1ccc(Cl)c(-c2ccc(Cl)c(Cl)c2)c1 [2,3',4',5-tetrachlorobiphenyl] | 0.099
Clc1cc(Cl)c(Cl)c(-c2ccc(Cl)c(Cl)c2Cl)c1 [2,2',3,3',4,5'-hexachlorobiphenyl] | 0.27
Clc1cccc(Cl)c1-c1c(Cl)cccc1Cl [2,2',6,6'-tetrachlorobiphenyl] | 0.049
Clc1ccc(-c2cc(Cl)c(Cl)cc2Cl)c(Cl)c1 [2,2',4,4',5-pentachlorobiphenyl] | 0.13
Clc1ccc(-c2ccc(Cl)c(Cl)c2)cc1 [3,4,4'-trichlorobiphenyl] | 0.099
Clc1ccccc1-c1c(Cl)cccc1Cl [2,2',6-trichlorobiphenyl] | 0.043
Clc1cccc(-c2cc(Cl)cc(Cl)c2)c1 [3,3',5-trichlorobiphenyl] | 0.058
Clc1ccc(-c2ccccc2)cc1Cl [3,4-dichlorobiphenyl] | 0.07
Clc1cc(Cl)c(-c2cc(Cl)c(Cl)cc2Cl)cc1Cl [2,2',4,4',5,5'-hexachlorobiphenyl] | 0.43
Clc1ccc(Cl)c(-c2c(Cl)c(Cl)cc(Cl)c2Cl)c1Cl [2,2',3,3',5,6,6'-heptachlorobiphenyl] | 0.41
Clc1ccc(Cl)c(-c2c(Cl)ccc(Cl)c2Cl)c1Cl [2,2',3,3',6,6'-hexachlorobiphenyl] | 0.11
Clc1ccc(Cl)c(-c2cc(Cl)ccc2Cl)c1 [2,2',5,5'-tetrachlorobiphenyl] | 0.049
